{"source": "patent US6395772B1", "about": "“Method for blocking endothelial cell-leukocyte attachment by inhibiting expression of adhesion molecules on the vascular endothelium for therapeutic applications” (National Institute of Immunology, priority 1996, dated 2002)", "key": {"ICAM-1": {"test_system": "ICAM-1", "assay": "ICAM-1 expression on vascular endothelium of LPS-challenged mice (immunocytochemical localization)", "assay_type": "in vivo, BALB/C mice", "conditions": "berberine intraperitoneally 24 hours before 500 ug LPS; sacrificed 6 hours after LPS", "procedure": "FIG. 3: Photomicrograph of liver from mice challenged with endotoxin (LPS 500 ug). […] (Immunocytochemical localization using anti-ICAM-1 antibody on frozen tissue).\nFIG. 4: Photomicrograph of liver from mice treated with berberine (10 ug/kg) followed 24 hours later by endotoxin (LPS 500 ug). […] (Immunocytochemical localization using anti-ICAM-1 antibody frozen tissue).\nBALB/C mice were treated with berberine (1, 5, 10 or 20 ug/kg body weight) intraperitoneally and challenged 24 hours later with 500 ug of endotoxin (lipopolysaccharide: LPS); controls without berberine treatment were also given LPS challenge. Animals were sacrificed 6 hours after the LPS challenge and various organs (liver, kidney, lungs) were removed and immediately frozen in liquid nitrogen. Frozen section of these organs were subjected to immunocytochemical localization for ICAM 1 antibodies."}, "[1]": {"test_system": "TNF sensitive mouse fibroblast L-929 cell line", "assay": "TNF-α mediated cytotoxicity on TNF-sensitive L-929 fibroblast cell line (MTT assay)", "assay_type": "cell-based", "procedure": "FIG. 7: Effect of berberine on TNF-α mediated cytotoxicity on TNF sensitive mouse fibroblast L-929 cell line.\nEffect of Berberine on TNF-α mediated cytotoxicity was evaluated using TNF-sensitive L-929 fibroblast cell line. L-929 cells were plated at a concentration of 5×10^4 cells/well in a 96-well flat bottom plate in a volume of 100 μl. The cells were incubated at 37° C. for 16-18 hrs. Different concentrations of TNF-α, with and without different doses of berberine, were added to the cultures. The cells were then incubated for additional 15 hrs and cytotoxity was measured by MTT assay."}, "[2]": {"test_system": "attachment of neutrophils to endothelial lining of the glomerular capillaries", "assay": "Neutrophil attachment to endothelial lining in kidney of endotoxin-challenged mice (electron microscopy)", "assay_type": "in vivo, BALB/C mice", "procedure": "FIG. 1: Electron micrograph of kidney from a mouse challenged with endotoxin (LPS: 500 ug)) showing attachment of neutrophils with endothelial cells of glomerular capillary. Degenerative changes in surrounding tissue are shown.\nFIG. 2: Electron micrograph of kidney from a mouse treated with a dose of berberine of 10 mg/kg followed 24 hours later by endotoxin (LPS 500 ug).\nBALB/C mice were treated with berberine (1, 5, 10 or 20 ug/kg body weight) intraperitoneally and challenged 24 hours later with lethal dose of endotoxin. Kidneys were removed after 3, 6 and 12 hours after endotoxin challenge and the tissue samples was fixed and processed for electron microscopy."}, "B cells, T cells": {"test_system": "B cells, T cells", "conditions": "cited from earlier work"}, "[3]": {"test_system": "ICAM-1 on endothelial cell line (send. 1)", "assay": "TNF-α induced ICAM-1 expression on endothelial cell line (send. 1), flowcytometric analysis", "assay_type": "cell-based", "description": "FIG. 5: Effect of berberine pretreatment on expression of TNF-α induced ICAM-1 expression on endothelial cell line (send. 1), in vitro. […] (Flowcytometric analysis using anti-ICAM 1 antibody—FITC conjugate). The black line represents background level of ICAM expression, the red line represents induced level of ICAM following TNF stimulation and the green line represents TNF-α induced ICAM-1 expression after treatment for different duration.\nFIG. 6: Effect of berberine pretreatment (dose response) on expression of TNF-α induced ICAM-1 expression on endothelial cell line (send. 1), in vitro. […] (Flowcytometric analysis using anti-ICAM 1 antibody—FITC conjugate). The black line represents background level of ICAM-1 expression, the red line represents induced level of ICAM following TNF stimulation and the green line represents the TNF-α induced ICAM induced ICAM expression after treatment with different doses of berberine.\nShifting of this curve to the left indicates the lower amount of expression of ICAM-1.\nEffect of berberine for various duration ranging from 1, 6, 12 and 24 hours on the expression of ICAM-1 on the endothelial cell line (send. 1) in response to a combination of recombinant TNF-α and IFN-γ was analyzed using flowcytometer after staining with FITC labeled anti-CD 54 (ICAM-1) antibody."}}, "note": "Entries after “also recorded” stand apart in the source; their conditions may differ."}
{"compound": "COc1ccc2cc3[n+](cc2c1OC)CCc1cc2c(cc1-3)OCO2", "note": "[berberine]", "values": [{"measurement": "expression of ICAM-1 on vascular endothelium (liver, kidney, lungs)", "setting": "ICAM-1", "value": "lack of expression of ICAM-1 on vascular endothelium; also recorded: inhibited expression of ICAM 1 on the endothelial lining of all organs"}, {"measurement": "TNF mediated cytotoxity", "setting": "[1]; berberine 100 μg/ml, TNF 100 pg/ml alone showed 66% cytotoxity, 15 hrs incubation", "value": 27, "unit": "%"}, {"measurement": "protection against TNF mediated killing", "setting": "[1]; different doses of berberine with TNF-α, 15 hrs", "value": "dose dependent inhibition of cytotoxic effect; also recorded: dose dependent protection"}, {"measurement": "glomerular morphology / surrounding tissue", "setting": "[2]; berberine dose of 10-20 mg/kg, endotoxin challenge 24 hours later", "value": "surrounding tissue appears normal; also recorded: glomerular morphology was normal"}, {"measurement": "attachment of neutrophils to endothelial lining of glomerular capillaries", "setting": "[2]; berberine intraperitoneally 24 hours before lethal endotoxin (LPS 500 ug), kidneys 3, 6 and 12 hours after challenge", "value": "appear free without attachment to endothelial lining; also recorded: remarkably inhibited the attachment of neutrophils to endothelial lining of the glomerular capillaries"}, {"measurement": "antibody production by B cells", "setting": "B cells, T cells", "value": "inhibits antibody production by B cells"}, {"measurement": "propagation of T cells", "setting": "B cells, T cells", "value": "no effect on propagation of T cells"}, {"measurement": "maximum inhibition of ICAM-1 expression", "setting": "[3]; 24 hours of treatment at 100 μg/ml", "value": "24 hour pretreatment shows the maximum inhibition of ICAM-1 expression and Treatment with 100 ug/ml berberine shows the maximum inhibition of ICAM-1 expression and maximum inhibition was seen at 24 hours of treatment at 100 μg/ml"}, {"measurement": "dose dependence of inhibition of ICAM-1 expression", "setting": "[3]; dose response, FIG. 6", "value": "dose dependent"}, {"measurement": "inhibition of ICAM-1 expression on endothelial cells", "setting": "[3]; recombinant TNF-α and IFN-γ stimulation, as early as 6 hours of treatment", "value": "inhibited the expression of ICAM-1 on endothelial cells"}]}
